Test system: dogs with induced myocardial infarction
Experiment: Inotropic potency on intravenous administration to dogs with induced myocardial infarction
Type: in vivo
Conditions: for ED50: Canis lupus familiaris, dose required to effect a fifty percent increase in contractility, four dogs with induced myocardial infarction, read-out: Contractile potency (mcg./kg.)ED50; for Blood pressure change (mm/Hg)ED50: change in blood pressure attributable to the drug at the ED50 dose; for Blood pressure change (mm/Hg)ED50 / Heart rate increase (beats/min.)ED50: dogs with induced myocardial infarction; for Heart rate increase (beats/min.)ED50: increase in heart rate observed at the ED50 dose
Protocol: The compounds provided by this invention have been evaluated for their inotropic potency in anesthetized dogs and in conscious dogs with implanted cardiovascular transducers. The heart rate, cardiac output, systolic pressure and the derivative of the left ventricular pressure, which is the index of cardiac contractility, were measured.
Column 1 lists the compounds evaluated according to the test. Each of the compounds evaluated was administered intravenously to four dogs with induced myocardial infarction. Column 2 records the contractile potency of each compound as the dose in mcg./kg. of body weight required to effect a fifty percent increase in contractility (ED50). Column 3 presents the increase in heart rate observed at the EDSO dose. Column 4 records the change in blood pressure attributable to the administered drug.

SMILES: Oc1ccc(CCCNC[C@H](O)c2cccc(O)c2)cc1 [R-N-[2-(3-hydroxyphenyl)-2-hydroxyethyl]-3-(4-hydroxyphenyl)propylamine]
- ED50: 5 µg/kg
- Blood pressure change (mm/Hg)ED50: +1 mm/Hg
- Heart rate increase (beats/min.)ED50: 12 beats/min.

SMILES: Oc1ccc(CCCNC[C@H](O)c2ccc(O)cc2)cc1 [R-N-[2-(4-hydroxyphenyl)-2-hydroxyethyl]-3-(4-hydroxy-phenyl)propylamine]
- ED50: 4 µg/kg
- Blood pressure change (mm/Hg)ED50: +4 mm/Hg
- Heart rate increase (beats/min.)ED50: 10 beats/min.

SMILES: Oc1ccc([C@@H](O)CNCCCc2cccc(O)c2)cc1 [R-N-[2-(4-hydroxyphenyl)-2-hydroxyethyl]-3-(3-hydroxyphenyl)propylamine]
- ED50: 1 µg/kg
- Blood pressure change (mm/Hg)ED50: -4 mm/Hg
- Heart rate increase (beats/min.)ED50: 16 beats/min.

SMILES: Oc1cccc(CCCNC[C@H](O)c2cccc(O)c2)c1 [R-N-[2-(3-Hydroxyphenyl)-2-hydroxyethyl]-3-(3-hydroxyphenyl)propylamine]
- ED50: 1 µg/kg
- Blood pressure change (mm/Hg)ED50: +7 mm/Hg
- Heart rate increase (beats/min.)ED50: 14 beats/min.
